# In patent publication US9446039B2, “Aminoheteroaryl compounds as MTH1 inhibitors” (CEMM—FORSCHUNGSZENTRUM FÜR MOLEKULARE MEDIZIN GMBH, priority 2012, dated 2016):
# Columns and labels:
# Type in all cases: binding
# [1] = biological target: SW480 colon carcinoma cells lysate proteins (Homo sapiens, UniProt P27708); conditions: PreyGene CAD
# [2] = biological target: T1, SW480 colon carcinoma cells lysate proteins (Homo sapiens, UniProt Q9UJZ1); conditions: PreyGene STOML2; SW480 cells
# T1 sequence (Q9UJZ1 29-356): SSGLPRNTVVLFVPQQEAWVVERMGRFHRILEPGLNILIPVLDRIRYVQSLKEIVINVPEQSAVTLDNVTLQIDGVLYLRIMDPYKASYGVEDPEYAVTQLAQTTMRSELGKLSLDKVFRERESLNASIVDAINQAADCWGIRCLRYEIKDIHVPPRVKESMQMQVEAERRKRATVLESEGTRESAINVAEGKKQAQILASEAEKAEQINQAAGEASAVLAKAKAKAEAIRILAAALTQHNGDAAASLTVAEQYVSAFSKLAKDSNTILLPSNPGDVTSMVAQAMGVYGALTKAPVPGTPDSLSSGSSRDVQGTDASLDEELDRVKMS
# [3] = biological target: T2, SW480 colon carcinoma cells lysate proteins (Homo sapiens, UniProt Q01844); conditions: PreyGene EWSR1; SW480 cells
# T2 sequence (Q01844 1-656): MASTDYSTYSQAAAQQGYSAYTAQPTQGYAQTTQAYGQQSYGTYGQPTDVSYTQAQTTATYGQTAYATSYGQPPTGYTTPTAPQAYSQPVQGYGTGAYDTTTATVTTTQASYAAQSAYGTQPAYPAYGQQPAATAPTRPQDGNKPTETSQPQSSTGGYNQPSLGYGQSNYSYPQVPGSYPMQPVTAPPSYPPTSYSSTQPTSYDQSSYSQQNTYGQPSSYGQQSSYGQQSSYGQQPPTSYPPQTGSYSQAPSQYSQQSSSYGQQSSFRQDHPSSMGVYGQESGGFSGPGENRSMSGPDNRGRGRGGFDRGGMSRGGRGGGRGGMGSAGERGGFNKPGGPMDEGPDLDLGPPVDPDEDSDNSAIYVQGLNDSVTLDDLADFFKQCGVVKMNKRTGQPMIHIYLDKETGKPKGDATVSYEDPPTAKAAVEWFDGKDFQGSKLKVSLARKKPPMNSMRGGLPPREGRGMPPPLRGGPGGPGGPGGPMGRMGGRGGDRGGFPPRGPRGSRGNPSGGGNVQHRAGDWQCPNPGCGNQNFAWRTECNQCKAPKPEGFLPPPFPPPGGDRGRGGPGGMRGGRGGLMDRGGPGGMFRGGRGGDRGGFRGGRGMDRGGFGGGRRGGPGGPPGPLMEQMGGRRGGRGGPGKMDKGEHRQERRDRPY
# [4] = biological target: SW480 colon carcinoma cells lysate proteins (Homo sapiens, UniProt Q9BZK3); conditions: PreyGene NACAP1; SW480 cells
# [5] = biological target: T3, SW480 colon carcinoma cells lysate proteins (Homo sapiens, UniProt P21980); conditions: PreyGene TGM2
# T3 sequence (P21980 1-687): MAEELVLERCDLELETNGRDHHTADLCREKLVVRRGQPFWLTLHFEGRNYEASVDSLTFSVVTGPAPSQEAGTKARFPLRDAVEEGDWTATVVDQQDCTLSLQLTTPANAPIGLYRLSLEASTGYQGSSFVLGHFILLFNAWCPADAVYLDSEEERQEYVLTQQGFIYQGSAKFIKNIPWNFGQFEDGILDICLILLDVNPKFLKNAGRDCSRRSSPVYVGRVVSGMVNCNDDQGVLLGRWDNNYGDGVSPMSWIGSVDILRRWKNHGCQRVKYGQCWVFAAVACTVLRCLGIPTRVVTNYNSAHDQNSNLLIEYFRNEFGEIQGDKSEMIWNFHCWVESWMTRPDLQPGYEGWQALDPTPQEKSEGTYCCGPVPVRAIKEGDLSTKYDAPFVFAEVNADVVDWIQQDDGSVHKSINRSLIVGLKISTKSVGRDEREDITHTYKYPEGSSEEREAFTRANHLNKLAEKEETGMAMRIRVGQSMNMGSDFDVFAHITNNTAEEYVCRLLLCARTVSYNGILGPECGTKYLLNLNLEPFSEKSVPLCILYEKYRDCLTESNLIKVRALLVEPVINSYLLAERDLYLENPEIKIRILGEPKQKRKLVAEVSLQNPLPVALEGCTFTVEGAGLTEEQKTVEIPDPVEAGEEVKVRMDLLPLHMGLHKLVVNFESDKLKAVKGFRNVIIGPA
# [6] = biological target: SW480 colon carcinoma cells lysate proteins (Homo sapiens, UniProt Q06210); conditions: PreyGene GFPT1; SW480 cells
# [7] = biological target: T4, SW480 colon carcinoma cells lysate proteins (Homo sapiens, UniProt Q9H9Z2); conditions: PreyGene LIN28A
# T4 sequence (Q9H9Z2 1-209): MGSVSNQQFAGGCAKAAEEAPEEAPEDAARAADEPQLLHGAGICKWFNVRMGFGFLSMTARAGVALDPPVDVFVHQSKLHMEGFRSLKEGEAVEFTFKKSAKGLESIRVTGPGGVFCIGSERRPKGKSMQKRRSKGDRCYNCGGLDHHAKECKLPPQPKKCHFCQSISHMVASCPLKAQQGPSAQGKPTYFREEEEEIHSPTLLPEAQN
# [8] = biological target: SW480 colon carcinoma cells lysate proteins (Homo sapiens, UniProt P62136); conditions: PreyGene PPP1CA
# Chain of SW480 colon carcinoma cells lysate proteins (Homo sapiens, UniProt P62136) (P62136 whole entry): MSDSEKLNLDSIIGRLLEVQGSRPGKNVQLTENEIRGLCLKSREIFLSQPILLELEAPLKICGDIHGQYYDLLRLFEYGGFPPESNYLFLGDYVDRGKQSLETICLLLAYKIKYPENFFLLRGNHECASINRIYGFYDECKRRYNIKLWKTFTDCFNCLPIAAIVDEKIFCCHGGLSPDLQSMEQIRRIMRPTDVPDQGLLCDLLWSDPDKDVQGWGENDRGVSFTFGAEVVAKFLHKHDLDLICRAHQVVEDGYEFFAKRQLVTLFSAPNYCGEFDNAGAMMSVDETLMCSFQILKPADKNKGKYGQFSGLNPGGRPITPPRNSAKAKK
# Chain of SW480 colon carcinoma cells lysate proteins (Homo sapiens, UniProt Q06210) (Q06210 whole entry): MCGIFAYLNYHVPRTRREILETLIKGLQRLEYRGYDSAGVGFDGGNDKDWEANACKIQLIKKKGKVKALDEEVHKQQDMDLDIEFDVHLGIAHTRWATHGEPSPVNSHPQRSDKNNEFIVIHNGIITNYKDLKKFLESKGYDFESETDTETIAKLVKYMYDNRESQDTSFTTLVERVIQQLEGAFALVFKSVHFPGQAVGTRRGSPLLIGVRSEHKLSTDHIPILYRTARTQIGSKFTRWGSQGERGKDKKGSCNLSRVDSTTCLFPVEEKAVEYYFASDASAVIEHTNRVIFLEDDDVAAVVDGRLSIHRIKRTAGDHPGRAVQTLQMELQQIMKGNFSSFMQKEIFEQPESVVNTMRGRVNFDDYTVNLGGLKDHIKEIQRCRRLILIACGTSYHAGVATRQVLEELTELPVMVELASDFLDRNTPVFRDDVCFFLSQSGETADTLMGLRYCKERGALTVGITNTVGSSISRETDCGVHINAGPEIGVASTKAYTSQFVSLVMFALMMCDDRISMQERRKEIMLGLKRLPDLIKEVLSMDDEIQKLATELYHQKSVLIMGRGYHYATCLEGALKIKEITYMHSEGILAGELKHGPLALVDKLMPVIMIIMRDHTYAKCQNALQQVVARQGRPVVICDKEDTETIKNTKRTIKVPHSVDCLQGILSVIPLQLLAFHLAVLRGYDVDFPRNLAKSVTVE
# Chain of SW480 colon carcinoma cells lysate proteins (Homo sapiens, UniProt P27708) (P27708 whole entry): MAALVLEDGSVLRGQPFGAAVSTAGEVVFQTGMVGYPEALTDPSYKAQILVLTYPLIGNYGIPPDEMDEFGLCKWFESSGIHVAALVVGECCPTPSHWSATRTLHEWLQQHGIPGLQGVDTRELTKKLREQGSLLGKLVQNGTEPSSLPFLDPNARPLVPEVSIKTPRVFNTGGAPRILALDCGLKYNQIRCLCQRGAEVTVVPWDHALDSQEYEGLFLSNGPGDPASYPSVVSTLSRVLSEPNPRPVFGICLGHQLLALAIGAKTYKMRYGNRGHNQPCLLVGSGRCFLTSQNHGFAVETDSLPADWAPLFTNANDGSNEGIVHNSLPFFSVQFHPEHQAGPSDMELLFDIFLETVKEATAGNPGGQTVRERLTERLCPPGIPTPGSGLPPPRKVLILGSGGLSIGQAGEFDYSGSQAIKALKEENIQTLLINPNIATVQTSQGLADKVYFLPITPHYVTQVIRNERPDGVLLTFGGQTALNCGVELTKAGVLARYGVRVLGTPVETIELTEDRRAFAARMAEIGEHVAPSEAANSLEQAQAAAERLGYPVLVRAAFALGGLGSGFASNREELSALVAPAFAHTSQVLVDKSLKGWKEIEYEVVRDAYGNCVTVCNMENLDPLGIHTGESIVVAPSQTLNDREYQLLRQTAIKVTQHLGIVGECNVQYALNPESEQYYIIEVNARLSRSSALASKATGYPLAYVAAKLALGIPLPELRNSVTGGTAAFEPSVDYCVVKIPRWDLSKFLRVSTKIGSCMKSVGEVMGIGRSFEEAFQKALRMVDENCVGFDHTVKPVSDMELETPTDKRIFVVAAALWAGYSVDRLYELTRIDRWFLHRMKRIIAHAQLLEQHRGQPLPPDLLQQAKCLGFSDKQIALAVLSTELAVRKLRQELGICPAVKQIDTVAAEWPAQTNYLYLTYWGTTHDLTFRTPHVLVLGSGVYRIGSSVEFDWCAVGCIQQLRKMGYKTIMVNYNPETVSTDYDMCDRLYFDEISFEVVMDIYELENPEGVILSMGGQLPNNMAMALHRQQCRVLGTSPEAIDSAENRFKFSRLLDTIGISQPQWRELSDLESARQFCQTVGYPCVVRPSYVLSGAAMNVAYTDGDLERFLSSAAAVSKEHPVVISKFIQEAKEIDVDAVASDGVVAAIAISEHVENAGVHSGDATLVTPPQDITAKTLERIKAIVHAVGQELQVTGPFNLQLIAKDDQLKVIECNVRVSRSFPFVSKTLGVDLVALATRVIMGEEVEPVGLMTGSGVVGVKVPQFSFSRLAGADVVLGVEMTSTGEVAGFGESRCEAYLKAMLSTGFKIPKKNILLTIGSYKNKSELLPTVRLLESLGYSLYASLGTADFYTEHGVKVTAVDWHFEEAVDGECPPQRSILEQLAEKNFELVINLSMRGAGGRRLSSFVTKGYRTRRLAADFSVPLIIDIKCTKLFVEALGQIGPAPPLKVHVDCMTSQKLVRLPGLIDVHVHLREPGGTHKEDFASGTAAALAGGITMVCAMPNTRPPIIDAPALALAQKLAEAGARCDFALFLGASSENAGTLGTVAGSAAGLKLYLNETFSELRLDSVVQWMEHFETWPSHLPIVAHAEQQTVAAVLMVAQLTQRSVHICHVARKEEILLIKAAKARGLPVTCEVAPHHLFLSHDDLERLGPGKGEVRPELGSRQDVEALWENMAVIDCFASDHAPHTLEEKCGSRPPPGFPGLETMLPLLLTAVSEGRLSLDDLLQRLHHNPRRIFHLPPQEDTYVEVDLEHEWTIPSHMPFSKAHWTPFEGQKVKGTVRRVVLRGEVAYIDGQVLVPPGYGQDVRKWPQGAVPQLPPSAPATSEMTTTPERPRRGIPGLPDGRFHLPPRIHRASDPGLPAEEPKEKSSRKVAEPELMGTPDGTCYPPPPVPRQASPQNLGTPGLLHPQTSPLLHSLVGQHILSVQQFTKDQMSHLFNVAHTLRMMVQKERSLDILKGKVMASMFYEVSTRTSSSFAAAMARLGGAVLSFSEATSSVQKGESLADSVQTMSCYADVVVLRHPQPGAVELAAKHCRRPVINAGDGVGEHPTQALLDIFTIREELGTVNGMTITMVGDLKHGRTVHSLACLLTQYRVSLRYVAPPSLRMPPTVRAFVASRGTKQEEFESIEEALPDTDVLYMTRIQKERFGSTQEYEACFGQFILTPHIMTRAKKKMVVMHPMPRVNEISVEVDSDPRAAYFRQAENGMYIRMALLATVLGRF
compound,measurement,setting,value
C[C@H](Oc1cc(-c2cnn(C3CCNCC3)c2)cnc1N)c1c(Cl)ccc(F)c1Cl [(5)-crizotinib],AvgP,[1],0.3483
same,SC.Exp. 1-1,[1],2
same,SC.Exp. 1-2,[1],3
same,SC.Exp. 2-1,[1],0
same,SC.Exp. 2-2,[1],0
same,Sum (SC.Exp.),[1],5
same,AvgP,[2],0
same,SC.Exp. 1-1,[2],5
same,SC.Exp. 1-2,[2],4
same,SC.Exp. 2-1,[2],2
same,SC.Exp. 2-2,[2],2
same,SC.Exp. Sum,[2],13
same,AvgP,[3],0
same,SC.Exp. 1-1,[3],0
same,SC.Exp. 1-2,[3],1
same,SC.Exp. 2-1,[3],0
same,SC.Exp. 2-2,[3],0
same,SC.Exp. Sum,[3],1
same,AvgP,[4],0
same,SC.Exp. 1-1,[4],0
same,SC.Exp. 1-2,[4],0
same,SC.Exp. 2-1,[4],1
same,SC.Exp. 2-2,[4],0
same,SC.Exp. Sum,[4],1
same,AvgP,[5],0.2455
same,SC.Exp. 1-1,[5],6
same,SC.Exp. 1-2,[5],5
same,SC.Exp. 2-1,[5],0
same,SC.Exp. 2-2,[5],0
same,Sum (SC.Exp.),[5],11
same,AvgP,[6],0
same,SC.Exp. 1-1,[6],1
same,SC.Exp. 1-2,[6],1
same,SC.Exp. 2-1,[6],0
same,SC.Exp. 2-2,[6],0
same,SC.Exp. Sum,[6],2
same,AvgP,[7],0.3021
same,SC.Exp. 1-1,[7],2
same,SC.Exp. 1-2,[7],2
same,SC.Exp. 2-1,[7],2
same,SC.Exp. 2-2,[7],0
same,Sum (SC.Exp.),[7],6
same,AvgP,[8],0.3721
same,SC.Exp. 1-1,[8],2
same,SC.Exp. 1-2,[8],2
same,SC.Exp. 2-1,[8],0
same,SC.Exp. 2-2,[8],0
same,Sum (SC.Exp.),[8],4
